Test systems include CCRF-CEM leukemia; HCT-116 colon; HL-60(TB) leukemia; HS 578T breast; MDA-MB-435; MOLT-4 leukemia; NCI/ADR-RES ovarian; SF-295 CNS; T-47D breast; OVCAR-5 ovarian.
What all share (experiment): inhibition of tumour cell growth, NCI panel, 48 h

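Exposure lasted 48 hours, with cells grown in 96-well plates and compounds tested at five concentrations. GI50 is the concentration that inhibits growth by half. TGI is the concentration that stops growth completely.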 Bounds are passed on as bounds.

On to `COC(=O)c1n[nH]c(C)c1N=NN(C)CCC#N`, for which the TGI in the assay on CCRF-CEM leukemia was 41.5 µM; with HCT-116 colon it was 46.3 µM; with HL-60(TB) leukemia, 87.6 µM; with HS 578T breast it was 52 µM; with MDA-MB-435, above 100 µM; in the assay with MOLT-4 leukemia, 15.1 µM. Moreover, the TGI in the assay with NCI/ADR-RES ovarian amounted to 36.4 µM; in the assay on SF-295 CNS it was 73.4 µM; with T-47D breast, 93 µM.
For the molecule `CC(C)c1[nH]nc(C(N)=O)c1N=NN(C)C`, the TGI in the assay with CCRF-CEM leukemia, in the assay with HCT-116 colon, in the assay with HL-60(TB) leukemia, with HS 578T breast, in the assay with MDA-MB-435 and in the assay on MOLT-4 leukemia was above 100 µM each time. The TGI in the assay on NCI/ADR-RES ovarian, with SF-295 CNS and in the assay with T-47D breast was above 100 µM in each case.
As for `CC(N)C(Cc1ccc(Cl)cc1)c1ccc(Cl)cc1` (stereo unspecified), the GI50 is 20.3 µM in the assay with CCRF-CEM leukemia; 4.05 µM with HCT-116 colon; 10.6 µM with HL-60(TB) leukemia; 13.8 µM with HS 578T breast; 8.2 µM in the assay on MDA-MB-435; 13.6 µM with MOLT-4 leukemia. Moreover, the GI50 in the assay with NCI/ADR-RES ovarian is 13.4 µM; in the assay on OVCAR-5 ovarian, 12.4 µM; with SF-295 CNS it was 10.4 µM; with T-47D breast, 10.7 µM. Further, the TGI came to 39 µM in the assay on CCRF-CEM leukemia; 16.4 µM in the assay on HCT-116 colon; 26.1 µM in the assay with HL-60(TB) leukemia; 39.7 µM in the assay with HS 578T breast; 20.7 µM in the assay with MDA-MB-435; 31.4 µM in the assay on MOLT-4 leukemia. The TGI with NCI/ADR-RES ovarian amounted to 36.9 µM; in the assay on OVCAR-5 ovarian, 27.3 µM; with SF-295 CNS, 23.6 µM; in the assay on T-47D breast it was 26 µM.
On to `CCN(Cc1ccc(C)cc1)c1ccc(CO)c(Cl)c1`, for which the GI50 was 15.9 µM with CCRF-CEM leukemia; 0.0966 µM in the assay on HCT-116 colon; 5.78 µM in the assay on HL-60(TB) leukemia; 12.5 µM with HS 578T breast; 13.7 µM in the assay on MDA-MB-435; 17 µM in the assay on MOLT-4 leukemia. For the same molecule, the GI50 was 11.1 µM with NCI/ADR-RES ovarian, 0.171 µM in the assay with OVCAR-5 ovarian, 1.01 µM in the assay with SF-295 CNS and 0.149 µM in the assay with T-47D breast. In addition, the TGI came out at 51.3 µM in the assay with CCRF-CEM leukemia; 4.11 µM in the assay with HCT-116 colon; 35.7 µM in the assay with HL-60(TB) leukemia; 38.2 µM in the assay on HS 578T breast; 28.5 µM with MDA-MB-435; 45.4 µM in the assay with MOLT-4 leukemia. Moreover, the TGI came out at 25.3 µM in the assay on NCI/ADR-RES ovarian, 0.689 µM with OVCAR-5 ovarian, 15.8 µM in the assay on SF-295 CNS and 0.623 µM in the assay on T-47D breast.
Turning to `Cc1cc2nc3c4cc(O)ccc4n(CCN(C)C)c3nc2cc1C`, the GI50 in the assay with CCRF-CEM leukemia is 0.518 µM; with HCT-116 colon, 0.397 µM; with HL-60(TB) leukemia, 0.364 µM; in the assay on HS 578T breast, 1.49 µM; in the assay on MDA-MB-435, 1.07 µM; in the assay on MOLT-4 leukemia it was 0.377 µM. Moreover, the GI50 in the assay on NCI/ADR-RES ovarian was 0.499 µM; with OVCAR-5 ovarian, 0.953 µM; in the assay with SF-295 CNS it was 0.573 µM; in the assay with T-47D breast, 1.28 µM. In addition, the TGI with CCRF-CEM leukemia came to 6 µM; with HCT-116 colon it was 3.36 µM; in the assay with HL-60(TB) leukemia, 1.76 µM; with HS 578T breast, 5.41 µM; with MDA-MB-435, 2.36 µM; with MOLT-4 leukemia it was 11.2 µM. For the same molecule, the TGI in the assay with NCI/ADR-RES ovarian is 4.2 µM; in the assay with OVCAR-5 ovarian it was 4.46 µM; in the assay with SF-295 CNS, 2.49 µM; with T-47D breast it was above 100 µM.
For `COC[C@@H](N=C1NC(=O)/C(=C/c2ccc3ncccc3c2)S1)c1ccccc1`, the GI50 in the assay on CCRF-CEM leukemia is 6.8 µM; in the assay on HCT-116 colon, 8.73 µM; in the assay with HL-60(TB) leukemia, 6.39 µM; in the assay with HS 578T breast, 7.43 µM; in the assay with MDA-MB-435, 9.12 µM; with MOLT-4 leukemia it was 8.88 µM. Further, the GI50 is 11.6 µM in the assay on NCI/ADR-RES ovarian, above 25 µM in the assay with OVCAR-5 ovarian, 8.71 µM with SF-295 CNS and 8.43 µM with T-47D breast. For the same molecule, the TGI was above 22 µM with CCRF-CEM leukemia; above 25 µM in the assay on HCT-116 colon; 19.2 µM in the assay with HL-60(TB) leukemia; above 23.2 µM with HS 578T breast; above 25 µM in the assay with MDA-MB-435; above 25 µM in the assay with MOLT-4 leukemia. Further, the TGI with NCI/ADR-RES ovarian, with OVCAR-5 ovarian, with SF-295 CNS and with T-47D breast was above 25 µM in each case.
For `COc1cc(/C=C\c2cc(OC)c(OC)c(OC)c2)cc(N/C=C\C(=O)c2ccc(OC(F)(F)F)cc2)c1OC`, the GI50 with CCRF-CEM leukemia was 3.55 µM; in the assay on HCT-116 colon it was 3.58 µM; with HL-60(TB) leukemia, 2.8 µM; in the assay on HS 578T breast, 6.44 µM; with MDA-MB-435 it was 1.84 µM; in the assay with MOLT-4 leukemia it was 3.99 µM. For the same molecule, the GI50 with NCI/ADR-RES ovarian is 3.04 µM; with OVCAR-5 ovarian, 8.2 µM; in the assay with SF-295 CNS, 4.12 µM; in the assay with T-47D breast it was 4.16 µM. Further, the TGI was above 100 µM with CCRF-CEM leukemia; above 100 µM with HCT-116 colon; 8.08 µM in the assay on HL-60(TB) leukemia; above 100 µM in the assay on HS 578T breast; 5.52 µM with MDA-MB-435; above 100 µM with MOLT-4 leukemia. Further, the TGI with NCI/ADR-RES ovarian was 9.85 µM; in the assay on OVCAR-5 ovarian, above 100 µM; with SF-295 CNS it was 30.9 µM; in the assay on T-47D breast, above 100 µM.
`CCCCCCCCCCCCOC1C(CNC(=O)C2OC3OC(C)(C)OC3C2NC(=O)Nc2ccc(CC(=O)OC)cc2)OC2OC(C)(C)OC21` (stereo unspecified): the GI50 was above 19.6 µM in the assay with CCRF-CEM leukemia; 12.5 µM with HCT-116 colon; above 100 µM in the assay on HS 578T breast; above 100 µM in the assay with MDA-MB-435; above 100 µM in the assay with NCI/ADR-RES ovarian; above 100 µM in the assay on OVCAR-5 ovarian. The GI50 in the assay on SF-295 CNS was above 34.8 µM; in the assay on T-47D breast, above 100 µM. The TGI in the assay with CCRF-CEM leukemia was above 100 µM; in the assay on HCT-116 colon, above 100 µM; in the assay with HL-60(TB) leukemia it was above 47.9 µM; in the assay on HS 578T breast it was above 100 µM; with MDA-MB-435, above 100 µM; in the assay with MOLT-4 leukemia, above 100 µM. Besides, the TGI in the assay with NCI/ADR-RES ovarian is above 100 µM; in the assay on OVCAR-5 ovarian, above 100 µM; in the assay with SF-295 CNS, above 49.5 µM; with T-47D breast, above 100 µM.

The record behind these values is PubChem BioAssay (NCI).
